Test [1] concerns Klebsiella pneumonia. Briefly: Enzyme reaction of bacteria on m-TECB based agar media in microtiter plates, read visually by colour. It counts as cell-based. Particulars: K. pneumonia. The source says:
(§1) Enzyme activity was detected on the m-TEC medium of Dufour et al. (Dufour, A.P., E.R. Strickland and V.J. Cabelli. 1981. Membrane filter method for enumerating Eseherichia coli. Appl. Envion. Microbiol. 41: 1152-1158) prepared with the following modifications: bromocresol purple, bromophenol red and lactose were omitted; the modified m-TEC medium contained (g/1 proteose peptone No. 3, 5.0g; yeast extract 3.0g; glycerol 10.0g; NaCl 7.5g; K2HPO4 3.3g; KH2PO4 1.0g; sodium lauryl sulfate 0.2g; sodium deoxycholate 0.10g and agar 15.0g. The medium was autoclaved for 15 minutes at 121°C. The following chemicals, purchased from the Sigma Chemical Company, St.Louis. Mo., were added separately to the modified m-TEC medium after autoclaving and cooling to 50°C - 60°C: para-nitrophenyl-β- ? -glucuronide 400 mg/l; indoxyl-β- ? -glucoside 250 mg/l. Indoxyl-β- ? -glucuronide, prepared as described in Example 8, was added at 350-400 mg/l. The four agar media used in this study will be referred to as follows: modified m-TEC as m-TECB medium; the formulations of indoxyl-β-D -glucuronide as IGA, para-nitrophenyl-β-D-glucuronide as PNGA, and indoxyl-β-D -glucoside (indican) as IA media.
(§2) In this experiment, four organisms were tested for β- D -glucuronidase and β- D -glucosidase activity: American Type Culture Collection (ATCC) strains Escherichia Coli 35218 and Klebsiella pneumonia 13883; environmental isolates that have been characterized in our laboratory, Escherichia coli 83-17350 and Klebsiella pneumonia PHL.
(§3) A series of m-TECB agar basal media microtiter plates were prepared, using the m-TECB base media described in Example 9, and indoxyl-β- D -glucuronide, p-nitrophenyl-β- D -glucuronide or indoxyl-β-D-glucoside was added to respective plates. Specific bacteria from controlled sources, described above, were applied to the plates and incubated at 45°C for 16 2 hours.

The test system of test [2] is Escherichia coli. The description is as above. It counts as cell-based.
Text: as §1, §2, §3

The structures appear in SMILES notation. Where a name gives a salt, the structure may show the parent alone.

Regarding `OC[C@H]1O[C@@H](Oc2c[nH]c3ccccc23)[C@H](O)[C@@H](O)[C@@H]1O` [indican, indoxyl-β-D -glucoside], the colour / reactivity result is “blue colour” in test [1]; “no reactivity” in test [2] (Environmental and ATCC strains of E.coli).
As to `O=C(O)[C@H]1O[C@@H](Oc2c[nH]c3ccccc23)[C@H](O)[C@@H](O)[C@@H]1O` [indoxyl-β- D -glucuronide, Indoxyl-β-D -Glucuronide Sodium Salt], the “hydrolysis by the glucuronidase activity of E. coli” value in test [2] was “readily and specifically hydrolysed”.

(Values after EP0284725A2, “Indoxyl-beta-d-glucuronide and method for making” (QUEEN'S UNIVERSITY AT KINGSTON, priority 1987, dated 1988).)
